From US8329726B2, “Inhibitors of VEGF receptor and HGF receptor signaling” (MethylGene Inc., priority 2005, dated 2012)
Where two headings read alike, the source gives them in different places.

Tests used:
[1] = biological target: T1, recombinant human c-Met/HGF receptor (Homo sapiens, UniProt P08581); assay: In vitro receptor tyrosine kinase assay (DELFIA), c-Met/HGF receptor; type: biochemical; settings: read-out: CMET IC50
T1 construct: His tag (pBlueBacHis2A vector); made in house; host or cells: Hi-5 cells (Trichoplusia ni), baculovirus
Procedure: Cell pellets were frozen at −80° C. until purification was performed.
(§1) The coated plates were washed and stored at 4° C. […] After incubation, the kinase reactions were quenched with EDTA and the plates were washed.

[2] = biological target: T2, VEGF receptor KDR (Homo sapiens, UniProt P35968); assay: In vitro receptor tyrosine kinase assay (DELFIA), VEGF receptor KDR; type: biochemical; settings: read-out: VEGFR IC50
T2 construct: made in house; host or cells: Sf9 cells (Spodoptera frugiperda), baculovirus
Procedure: In the case of VEGF receptor KDR a 1.6-kb cDNA corresponding to the catalytic domain of VEGFR2 or KDR (Genbank accession number AF035121 amino acid 806 to 1356) was cloned into the Pst I site of the pDEST20 Gateway vector (Invitrogen) for the production of a GST-tagged version of that enzyme.
The GST-VEGFR2806-1356 protein was expressed in […] (Spodoptera frugiperda) upon infection with recombinant baculovirus construct. […] Cell pellets were frozen at −80° C. until purification was performed.
The supernatant (cell extract) was used as starting material for purification of GST-VEGFR2806-1356.
The supernatant was loaded onto a GST-agarose column (Sigma) equilibrated with PBS pH 7.3. Following a four column volume (CV) wash with PBS pH 7.3+1% Triton X-100 and 4 CV wash with buffer B (50 mM Tris pH 8.0, 20% glycerol and 100 mM NaCl), bound proteins were step eluted with 5 CV of buffer B supplemented with 5 mM DTT and 15 mM glutathion. GST-VEGFR2806-1356 enriched fractions from this chromatography step were pooled based on U.V. trace i.e. fractions with high O.D.280. Final GST-VEGFR2806-1356 protein preparations concentrations were about 0.7 mg/ml with purity approximating 70%.
as §1

[3] = tested on: A549; assay: A549 wound healing inhibition (HGF dependent migration); type: cell-based; settings: Homo sapiens, A549 cells, read-out: A549 WOUND HEALING INHIB IC50
From the text: (§2) HGF has well known activity in terms of inducing scattering and migration (wound healing) (Wells et al., Cell Motil Cytoskeleton. 2005 November 62(3):180-94; Miura et al., Urology 2001 December 58(6):1064-9; Nishimura et al., Int J Urol. 1998 May 5(3):276-81; Wang et al., Mol Cancer Ther. 2003 November; 2(11):1085-92; and Christensen et al., Cancer Res. 2003 Nov. 1; 63(21):7345-55).

[4] = tested on: DU145; assay: DU145 scattering inhibition (HGF dependent scattering); type: cell-based; settings: Homo sapiens
From the text: as §2

[5] = DU-145, HGF dependent scattering, DU145 cells, read-out: DU145 SCATTERING INHIB IC50
[6] = DU-145, read-out: DU145 […] IC50

T2 sequence (P35968 806-1356): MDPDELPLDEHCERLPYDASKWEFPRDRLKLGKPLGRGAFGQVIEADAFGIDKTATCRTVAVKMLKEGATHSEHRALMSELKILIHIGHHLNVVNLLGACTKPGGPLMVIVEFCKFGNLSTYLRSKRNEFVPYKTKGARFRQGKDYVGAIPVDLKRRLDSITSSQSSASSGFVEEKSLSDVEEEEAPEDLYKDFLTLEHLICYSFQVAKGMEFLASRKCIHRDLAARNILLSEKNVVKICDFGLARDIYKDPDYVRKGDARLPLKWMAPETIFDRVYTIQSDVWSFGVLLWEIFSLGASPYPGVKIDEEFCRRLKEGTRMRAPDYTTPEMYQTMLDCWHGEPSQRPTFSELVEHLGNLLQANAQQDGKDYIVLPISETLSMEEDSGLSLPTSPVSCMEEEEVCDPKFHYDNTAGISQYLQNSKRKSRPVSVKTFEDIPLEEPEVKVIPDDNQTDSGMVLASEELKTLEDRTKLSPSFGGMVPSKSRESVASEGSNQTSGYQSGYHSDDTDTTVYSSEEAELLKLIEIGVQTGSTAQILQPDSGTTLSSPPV
T1 sequence (P08581 1078-1337): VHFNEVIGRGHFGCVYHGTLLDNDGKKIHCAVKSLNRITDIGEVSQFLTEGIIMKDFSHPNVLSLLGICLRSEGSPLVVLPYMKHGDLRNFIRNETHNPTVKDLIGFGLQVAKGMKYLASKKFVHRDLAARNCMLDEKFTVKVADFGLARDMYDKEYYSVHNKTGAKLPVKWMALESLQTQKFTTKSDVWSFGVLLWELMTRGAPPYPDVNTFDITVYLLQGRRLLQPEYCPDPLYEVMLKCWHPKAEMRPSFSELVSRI

Structure (SMILES)	IC50 [1] [nM]	IC50 [2] [nM]	IC50 [3] [nM]	IC50 [4, 5] [nM]	IC50 [4, 6] [nM]
Cn1cnc(-c2cc3nccc(Oc4ccc(NC(=O)CC(=O)Nc5ccccc5)cc4F)c3s2)c1 [drawing 287]	< 50	< 50	< 1000	< 1000	–
Cn1cnc(-c2cc3nccc(Oc4ccc(NC(=O)C5CCN(c6ccc(F)cc6)C5=O)cc4F)c3s2)c1 (centres unmarked)	< 50	< 50	< 1000	< 1000	–
COc1ccccc1NC(=O)CC(=O)Nc1ccc(Oc2ccnc3cc(-c4cccc(OCCCNC(=N)N)c4)sc23)c(F)c1	50 to 250	> 500	1000 to 5000	> 10000	–
Cn1cnc(-c2cc3nccc(Oc4ccc(NC(CC(=O)Nc5ccccc5)C(F)(F)F)cc4F)c3s2)c1 (centres unmarked)	–	< 50	1000 to 5000	–	1000 to 5000
COc1ccccc1NC(=O)CC(=O)Nc1ccc(Oc2ccnc3cc(-c4cccc(CN5CCOCC5)c4)sc23)c(F)c1	50 to 250	50 to 250	> 10000	1000 to 5000	–
O=C(Cn1cnc(-c2cc3nccc(Oc4ccc(NC(=O)CC(=O)Nc5ccccc5)cc4F)c3s2)c1)NCCCN1CCCC1	< 50	< 50	1000 to 5000	5000 to 10000	–
CN(C)CCn1cnc(-c2cc3nccc(Oc4ccc(NC(=O)N5CCN(c6ccc(F)cc6)C5=O)cc4F)c3s2)c1	< 50	< 50	< 1000	< 1000	–
CN1CCN(CCN(C)Cc2ccc(-c3cc4nccc(Oc5ccc(NC(=O)C6(C(=O)Nc7ccc(F)cc7)CC6)cc5F)c4s3)cc2)CC1	< 50	< 50	1000 to 5000	< 1000	–
COc1ccccc1NC(=O)CC(=O)Nc1ccc(Oc2ccnc3cc(-c4c[nH]cn4)sc23)c(F)c1	50 to 250	50 to 250	< 1000	< 1000	–
COc1ccccc1NC(=O)CC(=O)Nc1ccc(Oc2ccnc3cc(-c4ccc(OCCN5CCOCC5)cc4)sc23)c(F)c1	50 to 250	< 50	1000 to 5000	1000 to 5000	–
CN(C)[C@H]1CCN(Cc2ccc(-c3cc4nccc(Oc5ccc(NC(=O)CC(=O)Nc6ccccc6)cc5F)c4s3)cc2)C1	50 to 250	< 50	1000 to 5000	< 1000	–
CCn1cnc(-c2cc3nccc(Oc4ccc(NC(=O)N5CCN(c6ccccc6F)C5=O)cc4F)c3s2)c1	< 50	< 50	< 1000	< 1000	–
Cn1ccnc1-c1cc2nccc(Sc3ccc(NC(=O)N4CCN(c5ccccc5)C4=O)cc3)c2s1	< 50	50 to 250	< 1000	< 1000	–
CCn1cnc(-c2cc3nccc(Oc4ccc(NC(=O)C5CCN(c6ccccc6)C5=O)cc4F)c3s2)c1 (centres unmarked)	< 50	< 50	< 1000	< 1000	–
COc1ccccc1NC(=O)CC(=O)Nc1ccc(Oc2ccnc3cc(-c4cnc(N5CCOCC5)nc4)sc23)c(F)c1	> 500	> 500	> 10000	> 10000	–
CN1CCN(C(=O)C2(C(=O)Nc3ccc(Oc4ccnc5cc(-c6cn(C)cn6)sc45)c(F)c3)CC2)c2ccccc21	> 500	< 50	1000 to 5000	1000 to 5000	–
CN1CCN(CCN(C)Cc2ccc(-c3cc4nccc(Oc5ccc(NC(=O)CC(=O)Nc6ccc(F)cc6)cc5F)c4s3)cc2)CC1	< 50	< 50	< 1000	< 1000	–

Structure (SMILES)	IC50 [1] [nM]	IC50 [2] [nM]	IC50 [3] [nM]	IC50 [4, 5] [nM]	IC50 [4, 6] [nM]
Cn1cnc(-c2cc3nccc(Oc4ccc(NC(=O)CC(Nc5ccccc5)C(F)(F)F)cc4F)c3s2)c1 (centres unmarked)	–	50 to 250	1000 to 5000	–	1000 to 5000
Cn1cncc1-c1cc2nccc(Oc3ccc(NC(=O)CC(=O)Nc4cccnc4)cc3F)c2s1 [drawing 290]	50 to 250	< 50	1000 to 5000	1000 to 5000	–
COc1ccccc1NC(=O)CC(=O)Nc1ccc(Oc2ccnc3cc(-c4cccc(CN(C)C)c4)sc23)c(F)c1	< 50	50 to 250	< 1000	< 1000	–
CN(C)Cc1ccc(-c2cc3nccc(Oc4ccc(NC(=O)N5CCN(c6ccc(F)cc6)C5=O)cc4F)c3s2)nc1	< 50	< 50	< 1000	< 1000	–
COc1ccccc1NC(=O)CC(=O)Nc1ccc(Oc2ccnc3cc(C4=CCCN(C)C4)sc23)c(F)c1	50 to 250	250 to 500	1000 to 5000	1000 to 5000	–
CN(C)NC(=O)c1cc2nccc(Oc3ccc(NC(=O)CC(=O)N(C)c4ccccc4)cc3F)c2s1	250 to 500	> 500	> 10000	> 10000	–
COc1ccccc1NC(=O)CC(Nc1ccc(Oc2ccnc3cc(-c4cn(C)cn4)sc23)c(F)c1)C(F)(F)F (centres unmarked)	> 500	< 50	1000 to 5000	> 10000	–
O=C(CC(=O)Nc1ccc(Oc2ccnc3cc(-c4cccc[n+]4[O-])sc23)c(F)c1)Nc1ccccc1	< 50	< 50	< 1000	< 1000	–
CN1CC=C(c2cc3nccc(Oc4ccc(NC(=O)CC(=O)N(C)c5ccccc5)cc4F)c3s2)CC1	< 50	50 to 250	1000 to 5000	1000 to 5000	–
Cn1cnc(-c2cc3nccc(Nc4ccc(NC(=O)C5(C(=O)Nc6ccc(F)cc6)CC5)cc4F)c3s2)c1	< 50	< 50	< 1000	< 1000	–
Cn1cncc1-c1cc2nccc(Oc3ccc(NC(=O)CC(=O)Nc4ccccc4O)cc3F)c2s1	50 to 250	< 50	> 10000	1000 to 5000	–
Cn1ccnc1-c1cc2nccc(Oc3ccc(NC(=O)N4CCN(c5ccc(F)cc5)C4=O)cc3F)c2s1	50 to 250	< 50	< 1000	< 1000	–
CCn1cc(-c2cc3nccc(Oc4ccc(NC(=O)CC(=O)Nc5ccccc5OC)cc4F)c3s2)nc1C	50 to 250	< 50	< 1000	< 1000	–
COc1ccccc1NC(=O)CC(=O)Nc1ccc(Oc2ccnc3cc(-c4cncn4C)sc23)c(F)c1 [drawing 289]	< 50	< 50	1000 to 5000	1000 to 5000	–
CN(c1ccc(NC(=O)C2(C(=O)Nc3ccccc3)CC2)cc1F)c1ccnc2cc(-c3cn(C)cn3)sc12	50 to 250	–	1000 to 5000	< 1000	–
Cn1cnc(-c2cc3nccc(Oc4ccc(NC(=O)N5CCN(c6ccccc6)C5=O)cc4F)c3s2)c1	–	< 50	< 1000	–	< 1000
